In paper PMC12588090, “C6-Alkoxy substituted penicillins are potent non-covalently binding inhibitors of the SARS-CoV-2 main protease” (RSC Medicinal Chemistry, 2025):
Values joined by “and” are separate entries in the source; they are usually repeats but may differ in a detail not shown here. Identical values can stand only once. “Also recorded” adds a separate entry of the source. Like-named read-outs stand apart in the source and are kept apart here.

Assays:
SARS-CoV-2 M^pro [1] = target: T1, SARS-CoV-2 M^pro (Severe acute respiratory syndrome coronavirus 2, UniProt P0DTD1); assay: SPE-MS M^pro inhibition assay; format: biochemical; conditions: for increase in M^pro inhibition potency compared to (S)-sulfoxide 22: ratio of IC50 values
SARS-CoV-2 M^pro [2] = target: T1, SARS-CoV-2 M^pro; format: binding; conditions: for mass shift of concentration-dependent M^pro adduct / covalent reaction with / modification of M^pro / species with mass shifts corresponding to potential acyl–enzyme complexes: >15 h incubation; for mass shift of concentration-dependent M^pro adduct: intensity rises with penicillin derivative : M^pro ratio; for covalent reaction with / modification of M^pro / species with mass shifts corresponding to potential acyl–enzyme complexes: β-lactam 15 μM; for covalent reaction with / modification of M^pro: M^pro 3.0 μM (5 : 1), denaturing MS, 20 mM HEPES pH 7.5; for species with mass shifts corresponding to potential acyl–enzyme complexes: M^pro 3.0 μM
SARS-CoV-2 M^pro [3] = target: T1, SARS-CoV-2 M^pro; conditions: read-out: IC50 (reported) (converted), cited from earlier work
[4] = system: human leukocyte elastase (HLE); set-up: method as in doi:10.1016/S0960-894X(01)80940-9; conditions: cited from earlier work
[5] = SPE-MS, M^pro 0.05 μM, substrate 2.0 μM, n = 3, mean ± SD, freshly prepared DMSO stocks for 8, read-out: IC50
[6] = IC50, SPE-MS, M^pro 0.05 μM, substrate 2.0 μM, n = 3, mean ± SD, freshly prepared DMSO stocks for 8
[7] = literature value given in Table 1
[8] = SPE-MS, M^pro 0.05 μM, substrate 2.0 μM, n = 3, mean ± SD, freshly prepared DMSO stocks for 8

CC1(C)SC2C(Oc3ccccc3)C(=O)N2C1C(=O)OCc1ccccc1 (stereo not shown) [26e]
IC50 (SARS-CoV-2 M^pro [1]; [5]): > 50 µM

CO[C@@]1(NC(=O)Cc2ccccc2)C(=O)N2[C@@H](C(=O)OCc3ccccc3)C(C)(C)[S@@+]([O-])[C@@H]21 [compound 3, C6-methoxy (R)-sulfoxide penicillin G benzyl ester]
mass shift of concentration-dependent M^pro adduct (SARS-CoV-2 M^pro [2]): +32 Da | covalent reaction with / modification of M^pro (SARS-CoV-2 M^pro [2]): in no case were substantial amounts of species corresponding to covalent modification observed | species with mass shifts corresponding to potential acyl–enzyme complexes (SARS-CoV-2 M^pro [2]): low levels | IC50 (SARS-CoV-2 M^pro [1]; [5]): ~0.8 µM and 0.8 µM | increase in M^pro inhibition potency compared to (S)-sulfoxide 22 (SARS-CoV-2 M^pro [1]): ~9 fold

CO[C@@]1(NC(=O)Cc2ccccc2)C(=O)N2[C@@H](C(=O)OCc3ccccc3)C(C)(C)[S+]([O-])[C@@H]21 (stereo partly shown) [compound 22]
covalent reaction with / modification of M^pro (SARS-CoV-2 M^pro [2]): no evidence for covalent M^pro modification | IC50 (SARS-CoV-2 M^pro [1]; [5]): ~7.3 µM and 7.3 µM

CO[C@H]1C(=O)N2[C@@H](C(=O)OCc3ccccc3)C(C)(C)S(=O)(=O)[C@H]12 [27a]
covalent reaction with / modification of M^pro (SARS-CoV-2 M^pro [2]): in no case were substantial amounts of species corresponding to covalent modification observed; also recorded: did not evidence covalent modification | IC50 (SARS-CoV-2 M^pro [1]; [6]): 7.7 ± 4.9 µM

CC1(C)C(C(=O)OCc2ccccc2)N2C(=O)C(NC(=O)COc3ccccc3)C2[S+]1[O-] (stereo not shown) [compound 6]
IC50 (SARS-CoV-2 M^pro [3]; [7]): ~23 µM | IC50 (SARS-CoV-2 M^pro [1]; [5]): 6.3 ± 1 µM

CC1(C)S[C@@H]2[C@H](NC(=O)Cc3ccccc3)C(=O)N2[C@H]1C(=O)O [C00011, reference compound]
IC50 (SARS-CoV-2 M^pro [3]; literature value in Table 2): > 50 µM | IC50 (SARS-CoV-2 M^pro [1]; [6]): > 50 µM

CO[C@@]1(NC(=O)Cc2ccccc2)C(=O)N2[C@@H](C(=O)OCc3ccccc3)C(C)(C)S(=O)(=O)[C@@H]21 [compound 20]
IC50 (SARS-CoV-2 M^pro [1]; [5]): 11 ± 4 µM

CC1(C)S[C@@H]2[C@H](NC(=O)Cc3ccccc3)C(=O)N2[C@H]1C(=O)OCc1ccccc1 [compound 18]
IC50 (SARS-CoV-2 M^pro [1]; [5]): > 50 µM

CC(C)(C)O[C@H]1C(=O)N2[C@@H]1SC(C)(C)[C@@H]2C(=O)OCc1ccccc1 [26d]
IC50 (SARS-CoV-2 M^pro [1]; [5]): 39 ± 9 µM

CO[C@@]1(NC(=O)COc2ccccc2)C(=O)N2[C@@H](C(=O)OCc3ccccc3)C(C)(C)S(=O)(=O)[C@@H]21 [compound 9]
covalent reaction with / modification of M^pro (SARS-CoV-2 M^pro [2]): in no case were substantial amounts of species corresponding to covalent modification observed | IC50 (SARS-CoV-2 M^pro [1]; [8]): inactive | IC50 (SARS-CoV-2 M^pro [1]; [5]): > 50 µM

CC1(C)[C@H](C(=O)OCc2ccccc2)N2C(=O)[C@@H](NC(=O)COc3ccccc3)[C@H]2S1(=O)=O [compound 1, penicillin V sulfone benzyl ester]
IC50 (SARS-CoV-2 M^pro [3]; [7]): ~6.6 µM | IC50 (SARS-CoV-2 M^pro [1]; [5]): 2.9 ± 0.4 µM

CC(C)O[C@H]1C(=O)N2[C@@H](C(=O)OCc3ccccc3)C(C)(C)S(=O)(=O)[C@H]12 [27c]
IC50 (SARS-CoV-2 M^pro [1]; [5]): 19 ± 14 µM

CC1(C)SC2C(OCc3ccccc3)C(=O)N2C1C(=O)OCc1ccccc1 (stereo not shown) [26f]
IC50 (SARS-CoV-2 M^pro [1]; [5]): 7.3 ± 1.4 µM

CO[C@H]1C(=O)N2[C@@H]1SC(C)(C)[C@@H]2C(=O)OCc1ccccc1 [26a]
covalent reaction with / modification of M^pro (SARS-CoV-2 M^pro [2]): in no case were substantial amounts of species corresponding to covalent modification observed; also recorded: did not evidence covalent modification | IC50 (SARS-CoV-2 M^pro [1]; [5]): 1.2 ± 0.1 µM

COC1(NC(=O)COc2ccccc2)C(=O)N2C1[S+]([O-])C(C)(C)C2C(=O)OCc1ccccc1 (stereo not shown) [compound 7]
covalent reaction with / modification of M^pro (SARS-CoV-2 M^pro [2]): in no case were substantial amounts of species corresponding to covalent modification observed; also recorded: low levels of reaction | IC50 (SARS-CoV-2 M^pro [1]; [5]): ~2.3 µM and 2.3 µM

CC1(C)[C@H](C(=O)OCc2ccccc2)N2C(=O)[C@](NC(=O)COc3ccccc3)(O[C@@H]3CCNC3=O)[C@H]2S1(=O)=O [C00006]
IC50 (SARS-CoV-2 M^pro [1]; [5]): 5.3 ± 1.6 µM

CC1(C)[C@H](C(=O)OCc2ccccc2)N2C(=O)[C@@H](NC(=O)Cc3ccccc3)[C@H]2S1(=O)=O [compound 19]
IC50 (SARS-CoV-2 M^pro [1]; [5]): > 50 µM

CC1(C)S[C@H]2N(C(=O)[C@]2(NC(=O)COc2ccccc2)OCc2ccccc2)[C@H]1C(=O)OCc1ccccc1 [16c]
IC50 (SARS-CoV-2 M^pro [1]; [8]): inactive | IC50 (SARS-CoV-2 M^pro [1]; [5]): > 50 µM

CCO[C@@]1(NC(=O)COc2ccccc2)C(=O)N2[C@@H](C(=O)OCc3ccccc3)C(C)(C)S(=O)(=O)[C@@H]21 [10a]
IC50 (SARS-CoV-2 M^pro [1]; [5]): 5.8 ± 1.9 µM

CC(C)(C)O[C@H]1C(=O)N2[C@@H](C(=O)OCc3ccccc3)C(C)(C)S(=O)(=O)[C@H]12 [27d]
IC50 (SARS-CoV-2 M^pro [1]; [5]): 21 ± 3 µM

COC1(NC(=O)Cc2ccccc2)C(=O)N2C1[S+]([O-])C(C)(C)C2C(=O)OCc1ccc([N+](=O)[O-])cc1 (stereo not shown) [compound 2]
IC50 (SARS-CoV-2 M^pro [3]; literature value in Table 2): ~3.5 µM | mass shift of M^pro adduct (SARS-CoV-2 M^pro [2]; 5 : 1 inhibitor : M^pro, after 45 min, low levels): +32 Da | mass shift of M^pro adduct (SARS-CoV-2 M^pro [2]; 5 : 1 inhibitor : M^pro, formed within 15 min, increasing intensity): +498 Da | mass shift of M^pro adduct (SARS-CoV-2 M^pro [2]; 5 : 1 inhibitor : M^pro, t = 0 min / initial, weak intensity): +515 Da | mass shift of M^pro adduct (SARS-CoV-2 M^pro [2]; 10:1 inhibitor : M^pro, after 45 min, low intensity): +32 Da | mass shift of M^pro adduct (SARS-CoV-2 M^pro [2]; 10:1 inhibitor : M^pro, increasing intensity over 45 min): +498 Da | mass shift of M^pro adduct (SARS-CoV-2 M^pro [2]; 10:1 inhibitor : M^pro, initial formation): +515 Da | mass shift of concentration-dependent M^pro adduct (SARS-CoV-2 M^pro [2]): +32 Da | covalent reaction with / modification of M^pro (SARS-CoV-2 M^pro [2]): in no case were substantial amounts of species corresponding to covalent modification observed | species with mass shifts corresponding to potential acyl–enzyme complexes (SARS-CoV-2 M^pro [2]): low levels | IC50 (SARS-CoV-2 M^pro [1]; [5]): 0.5 ± 0.1 µM | increase in M^pro inhibition potency compared to (S)-sulfoxide 22 (SARS-CoV-2 M^pro [1]): ~9 fold

CC1(C)C(C(=O)OCc2ccccc2)N2C(=O)C(Oc3ccccc3)C2S1(=O)=O (stereo not shown) [27e]
IC50 (SARS-CoV-2 M^pro [1]; [5]): > 50 µM

CCO[C@H]1C(=O)N2[C@@H](C(=O)OCc3ccccc3)C(C)(C)S(=O)(=O)[C@H]12 [27b]
inhibition of HLE [4]: covalent inhibitors | IC50 (SARS-CoV-2 M^pro [1]; [5]): 44 ± 4 µM

CC1(C)C(C(=O)OCc2ccccc2)N2C(=O)C(OCc3ccccc3)C2S1(=O)=O (stereo not shown) [27f]
inhibition of HLE [4]: covalent inhibitors | IC50 (SARS-CoV-2 M^pro [1]; [5]): 35 ± 2 µM

CO[C@@]1(NC(=O)COc2ccccc2)C(=O)N2[C@@H](C(=O)OCc3ccccc3)C(C)(C)S[C@@H]21 [compound 8]
IC50 (SARS-CoV-2 M^pro [1]; [8]): no inhibition in the tested concentration range | IC50 (SARS-CoV-2 M^pro [1]; [5]): > 50 µM | IC50 (SARS-CoV-2 M^pro [1]; additional replicates using premade DMSO stock solutions, read-out: IC50): ~5 µM

CC1(C)S[C@@H]2[C@H](NC(=O)COc3ccccc3)C(=O)N2[C@H]1C(=O)OCc1ccccc1 [compound 5]
IC50 (SARS-CoV-2 M^pro [3]; [7]): > 50 µM | IC50 (SARS-CoV-2 M^pro [1]; [6]): > 50 µM | IC50 (SARS-CoV-2 M^pro [1]; [8]): no inhibition in the tested concentration range

CO[C@@]1(NC(=O)Cc2ccccc2)C(=O)N2[C@@H](C(=O)OCc3ccccc3)C(C)(C)S[C@@H]21 [compound 25]
IC50 (SARS-CoV-2 M^pro [1]; [5]): 11 ± 6 µM

CC1(C)[C@H](C(=O)OCc2ccccc2)N2C(=O)[C@@H](NC(=O)Cc3ccccc3)[C@H]2[S@+]1[O-] [compound 23]
IC50 (SARS-CoV-2 M^pro [1]; [5]): > 50 µM

CO[C@@]1(NC(=O)Cc2ccccc2)C(=O)N2[C@@H](C(=O)O)C(C)(C)S[C@@H]21 [compound 24, C6-methoxypenicillin G acid]
IC50 (SARS-CoV-2 M^pro [1]; moderate inhibition potency observed in some cases (variable values, possible instability in DMSO), read-out: IC50): 15 ± 8 µM

CCO[C@H]1C(=O)N2[C@@H]1SC(C)(C)[C@@H]2C(=O)OCc1ccccc1 [26b]
IC50 (SARS-CoV-2 M^pro [1]; [5]): 0.8 ± 0.1 µM

CC1(C)[C@H](C(=O)OCc2ccccc2)N2C(=O)[C@](NC(=O)COc3ccccc3)(OCc3ccccc3)[C@H]2S1(=O)=O [C00008]
IC50 (SARS-CoV-2 M^pro [1]; [5]): 8.3 ± 2.6 µM

CC(C)O[C@H]1C(=O)N2[C@@H]1SC(C)(C)[C@@H]2C(=O)OCc1ccccc1 [26c]
IC50 (SARS-CoV-2 M^pro [1]; [5]): 47 ± 13 µM

CC1(C)C(C(=O)OCc2ccccc2)N2C(=O)C(NC(=O)Cc3ccccc3)C2[S+]1[O-] (stereo not shown) [compound 21]
IC50 (SARS-CoV-2 M^pro [1]; [5]): > 50 µM
